Data reported in article PMC3022839 (BMC Medical Imaging, 2011).

What was measured:
18FDG brain uptake (PET) = format: in vivo, rat; conditions: 60 minutes after injection
Description: No post-reconstruction filtering was applied.

Sprague-Dawley rats = assay: Kainate-induced status epilepticus; format: in vivo, rat
Method: Adult male Sprague-Dawley rats (n = 50, Harlan, Horst, The Netherlands) weighing 200-224 g at arrival were housed in groups of 5-6 per cage until treatment. They were kept at a constant temperature of 21°C and at a 12 h light/dark cycle, in which lights were switched on at 8:00 AM. Animals had unrestricted access to food (Teklad Global 16% Protein Rodent Diet, Harlan, Madison, WI, USA) and water. Animal procedures were performed in accordance with Dutch laws on animal experimentation. All experiments were approved by the Ethics Committee for Animal Experiments of Leiden University (approval number UDEC08178). After approximately one week of habituation and 7 days prior to PET investigation rats were treated with either kainic acid (5 mg/mL) or saline. Kainic acid was administered repeatedly as a 10 mg/kg (2 mL/kg) i.p. injection followed by 5 mg/kg (1 mL/kg) i.p. every 30-60 minutes until stage IV seizures according to Racine's scale occurred, or when a total amount of 30 mg/kg kainic acid was reached. Control rats were treated with 3 saline i.p. injections using the same volumes as for the kainate treated rats, 30 minutes apart. After treatment rats were housed individually.

P-glycoprotein (P-gp) = assay: P-gp expression in brain capillaries (immunohistochemistry, C219); format: in vivo, rat; conditions: kainate vs saline treated rats, 7 days after treatment; cortex and hippocampus CA1
[1] = tested on: P-glycoprotein (P-gp) at the blood-brain barrier; assay: Population mixed effects modelling (NONMEM) of (R)-[11C]verapamil brain kinetics
Method: Rats from the different groups were randomly assigned to experimental days and scanned in pairs for 60 minutes using a double LSO/LYSO layer High Resolution Research Tomograph (HRRT, CTI/Siemens, Knoxville, TN, USA) [37]. […] The other half was treated only with vehicle (3 mL/kg). […] The purpose of the ^18FDG scan was to outline the brain to aid in defining regions of interest. The HRRT scanner acquires data in list mode, enabling post-scan definition of the frame sequence. The final frame sequence used for analysis was 6 × 10, 2 × 30, 3 × 60, 2 × 150, 2 × 300 and 4 × 600 seconds. Studies were reconstructed using an iterative 3 D ordered-subsets weighted least-squares (3D-OSWLS) method with 8 iterations and 16 subsets [39]. No post-reconstruction filtering was applied. […]
PET image data were analyzed using the freely available software package Amide 0.8.22 [44]. […] To correct for an intravascular contribution, radioactivity measured in whole blood was exponentially interpolated to obtain blood radioactivity values at each mid frame time point and then subtracted from the brain time-activity curves, assuming that cerebral blood volume was 3% of the total brain volume [45]. […]
(§1) The NONMEM model was constructed in two steps. […] One, two and three compartment models were evaluated. […] Again, one and two compartment models were evaluated, and treatment, rat group and animal weight were included as covariates. […]

[2] = Tariquidar plasma concentration (LC/MS); format: in vivo; conditions: Sprague-Dawley, rat, intravenous, 15 mg/kg, 2 hours after tariquidar 15 mg/kg i.v., mean ± s.d.
[3] = Population mixed effects modelling (NONMEM) of (R)-[11C]verapamil plasma kinetics; conditions: tariquidar 15 mg/kg i.v. co-administration vs vehicle
Description: Plasma time-activity curves were corrected for tracer metabolism before they were used as input for kinetic modelling. […] Two types of corrections were used: (1) complete metabolite correction and (2) correction only for polar metabolites. […] Mathematically, this is described by the following equations:
Nonlinear mixed effects modelling, using NONMEM VI (GloboMax LLC, Hanover, MD, USA), provide a tool for analyzing repeated measurements data in which the relationship between the explanatory and response variables can be modeled as a single function, allowing the parameters to differ between individuals. In addition, these techniques recognize that the variability associated with the response variable for a given individual may depend on the response value in a way that is similar for all individuals. This could be due, for example, to properties associated with measurement error.
Data from all rats was processed simultaneously. The subroutine ADVAN 9 and first-order conditional estimation with interaction were used throughout the modelling procedure. […]
as §1

O=C[C@H]([18F])[C@@H](O)[C@H](O)[C@H](O)CO [^18FDG]
18FDG brain uptake, SUV (18FDG brain uptake (PET); kainate treated rats, mean ± s.d.): 2.0 ± 0.4
18FDG brain uptake, SUV (18FDG brain uptake (PET); saline treated rats, mean ± s.d.): 1.6 ± 0.3
18FDG brain uptake, SUV (18FDG brain uptake (PET); with or without tariquidar co-administration (both groups)): 1.8 ± 0.4

C=C(C)[C@H]1CN[C@H](C(=O)O)[C@H]1CC(=O)O [kainic acid]
duration of seizures (Sprague-Dawley rats; after kainic acid i.p.): 1 to 2 h
seizure stage reached (Racine's scale) (Sprague-Dawley rats; kainic acid i.p. 10 mg/kg then 5 mg/kg every 30-60 minutes, all rats, except one): stage IV-V seizures
rats that died as a result of treatment (Sprague-Dawley rats; kainic acid i.p., up to 30 mg/kg): Four
time to status epilepticus after the last injection (Sprague-Dawley rats; typically 3 injections, i.e. 20 mg/kg i.p.): ≤ 20 min
P-gp expression, P-gp labelled surface area (P-glycoprotein (P-gp)): trend towards higher P-gp expression
P-gp expression, optical density (P-glycoprotein (P-gp)): no difference
Covariate kainate on Vbr1 of (R)-[11C]verapamil (fractional difference) ([1]; kainate vs saline treated rats, 7 days after treatment): 1.32 (0.416)
increase of Vbr1 of (R)-[11C]verapamil in kainate treated compared to saline treated rats ([1]; population model, rat group as covariate, 7 days after kainate): 32%

COc1cc2c(cc1OC)CN(CCc1ccc(NC(=O)c3cc(OC)c(OC)cc3NC(=O)c3cnc4ccccc4c3)cc1)CC2 [tariquidar, Tariquidar]
concentration at 2 h ([2]; kainate group): 1600 ± 300 ng/mL
concentration at 2 h ([2]; saline group): 1800 ± 300 ng/mL
Covariate tariquidar on Vp1 of (R)-[11C]verapamil (fractional difference) [3]: 1.20 (0.119)
